In patent US20260376293A1, “METHODS FOR STUDYING GPR158 PHARMACOLOGY AND IDENTIFICATION OF ITS LIGANDS” (UNIVERSITY OF FLORIDA RESEARCH FOUNDATION, INCORPORATED, priority 2022, published 2026):

What was measured:
[1] = system: layer II-III pyramidal neurons; experiment: Whole cell recordings, layer II-III prelimbic cortex neurons, WT mice; type: cell-based, mouse; settings: 1 mM
Procedure: (§1) FIGS. 14A-14H. Effect of glycine on neuronal excitability. A) Schematic of the electrophysiological recordings in slice preparation targeting mPFC neurons of layer II-III. Experiments were conducted with a cocktail of synaptic blockers: picrotoxin (100 μM) (blockade of GABAA receptor chloride channels), strychnine (1 μM) (antagonist of glycine and acetylcholine ionotropic receptors), CNQX (20 μM) (AMPA receptors antagonist), and APV (50 μM) (NMDAR antagonist). B) Representative traces of voltage responses to a 200 pA current ramp injection under control conditions and after bath application of glycine (1 mM) in WT mice. C) Quantification of changes in excitability by number of action potentials fired in response to 200 pA current ramp (n=8 neurons from 5 mice). Nonparametric t-test; Wilcoxon test, **p<0.01. D) Quantification of changes in excitability by rheobase current under control condition and glycine application (n=8 neurons from 5 mice). Nonparametric t-test; Wilcoxon test, **p<0.01. E) Representative traces of voltage responses to a 200 pA current ramp injection obtained from layer II-III pyramidal neurons in GPR158 KO mice under control conditions and during bath application of glycine (1 mM). F) Quantification of changes in excitability by number of action potentials fired in response to 200 pA current ramp (n=4 neurons/3 mice). Nonparametric t-test; Wilcoxon test, ns=p>0.05. G) Quantification of changes in excitability by rheobase current under control condition and glycine application (n=4 neurons/3 mice). Nonparametric t-test; Wilcoxon test, ns=p>0.05. H) Schematic representation of the proposed mechanism of glycine effects on mGlyR. In 14C, 14D, 14F, and 14G, solid circles (Ctrl), circles with no fill (Glycine), columns with no fill (Ctrl), and columns with dotted fill (Glycine).
FIGS. 15A-15H. Effect of glycine and taurine on excitability of layer V neurons and membrane properties of layer II/III neurons in wild type and GPR158 knockout mice. A) Representative traces of voltage responses to a 200 pA current ramp injection obtained from layer V pyramidal neurons in WT mice under control conditions and during bath application of glycine (1 mM). B) Quantification of glycine effects on neuronal excitability by number of action potentials fired in response to 200 pA current ramp under control condition and glycine application (n=4 neurons/3 mice). Nonparametric t-test; Wilcoxon test, ns=p>0.05. C) Quantification of glycine effects on neuronal excitability by rheobase current under control condition and glycine application (n=4 neurons/3 mice). Nonparametric t-test; Wilcoxon test, ns=p>0.05. D) Resting membrane potential of layer V pyramidal neurons in WT mice under control conditions and during bath application of glycine (n=4 neurons/3 mice). […]

[2] = system: layer II-III pyramidal neurons of GPR158 KO mice; experiment: Whole cell recordings, layer II-III neurons, GPR158 KO mice; type: cell-based, mouse; settings: for rheobase current / number of action potentials fired / resting membrane potential: 1 mM, GPR158 KO; for number of action potentials fired: 200 pA current ramp; for resting membrane potential: layer II-III
Procedure: as §1
FIGS. 15A-15H. Effect of glycine and taurine on excitability of layer V neurons and membrane properties of layer II/III neurons in wild type and GPR158 knockout mice. A) Representative traces of voltage responses to a 200 pA current ramp injection obtained from layer V pyramidal neurons in WT mice under control conditions and during bath application of glycine (1 mM). B) Quantification of glycine effects on neuronal excitability by number of action potentials fired in response to 200 pA current ramp under control condition and glycine application (n=4 neurons/3 mice). Nonparametric t-test; Wilcoxon test, ns=p>0.05. C) Quantification of glycine effects on neuronal excitability by rheobase current under control condition and glycine application (n=4 neurons/3 mice). Nonparametric t-test; Wilcoxon test, ns=p>0.05. D) Resting membrane potential of layer V pyramidal neurons in WT mice under control conditions and during bath application of glycine (n=4 neurons/3 mice). Nonparametric t-test; Wilcoxon test, ns=p>0.05. E) Resting membrane potential of layer II-III pyramidal neurons in WT mice under control conditions and during bath application of glycine (n=6 neurons/4 mice). Nonparametric t-test; Wilcoxon test, ns=p>0.05. F) Resting membrane potential of layer II-III pyramidal neurons in GPR158 KO mice under control conditions and during bath application of glycine (n=4 neurons/3 mice). Nonparametric t-test; Wilcoxon test, ns=p>0.05. G) Resting membrane potential under control conditions and during bath application of taurine (n=9 neurons/5 mice). Paired t-test, p=0.4809. H) Resting membrane potential under control conditions and during bath application of taurine (n=5 neurons/4 mice) Nonparametric t-test; Wilcoxon test, ns=p>0.05, p>0.9999. In FIGS. 15B, 15C, 15D, 15E, and 15F, solid circles (Ctrl), circles with angled-line fill (Glycine), columns with no fill (Ctrl), columns with angled-line fill (Glycine). In 15G and 15H, solid circles (Ctrl), circles with no fill (Taurine), columns with no fill (Ctrl), columns with dotted fill (Taurine).
FIGS. 16A-16F Effect of taurine on neuronal excitability of layer II/III neurons. […]

[3] = 200 pA current ramp, synaptic blockers

Structure (SMILES)	resting membrane potential [1]	number of action potentials fired [1, 3]	rheobase current [1, 3]	rheobase current [2]	number of action potentials fired [2]	resting membrane potential [2]	excitability of layer II-III neurons ([2]; Gpr158 KO, glycine 1 mM)
NCC(=O)O [glycine]	without changes in the resting membrane potential	significantly increased the number of action potentials	decreasing the amount of current necessary to elicit the first action potential	ns	ns	ns	failed to alter excitability
NCCS(=O)(=O)O [taurine, 2-aminoethanesulfonic acid]	–	–	ns	ns	ns	ns	–
